Earlier results, collected in patent publication US20100239665A1 (priority 2007, published 2010).

In the case of `COCCOC(=O)C1=C(C)NC(C)=C(C(=O)OC(C)C)C1c1cccc([N+](=O)[O-])c1` (stereo not shown) [Nimodipine], the solubility in water is given as “practically insoluble in water”.
